From patent US20240368122A1, “JAK2 INHIBITORS AND METHODS OF USE THEREOF” (RELAY THERAPEUTICS, INC., priority 2021, published 2024)
Where two headings read alike, the source gives them in different places.

Key:
[1] = target: T1, JAK2 JH2 WT (V536-D812) [W659A, W777A, F794H solubilizing mutations] (Homo sapiens, UniProt O60674, F794H/W659A/W777A); test: Surface Plasmon Resonance (SPR) binding assay, JAK2 JH2 domain
T1 construct: **JAK2 JH2 WT (V536-D812) [W659A, W777A, F794H solubilizing mutations]; C-thrombin-avi-His6; thrombin cleavage site (C); His6 (C); purchased Biortus
T1 sequence (O60674 536-812 W659A/W777A/F794H): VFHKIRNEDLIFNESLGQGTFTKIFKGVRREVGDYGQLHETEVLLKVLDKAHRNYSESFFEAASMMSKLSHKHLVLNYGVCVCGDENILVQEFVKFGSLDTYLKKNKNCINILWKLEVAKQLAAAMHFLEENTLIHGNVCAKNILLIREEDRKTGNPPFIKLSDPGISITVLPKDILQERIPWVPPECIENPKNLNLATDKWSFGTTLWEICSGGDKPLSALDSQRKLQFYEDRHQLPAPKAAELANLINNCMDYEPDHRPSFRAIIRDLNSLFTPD
How it was run: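 Kinetics came from 1:1 fits of single-cycle runs at 20 °C: four 3-fold dilutions from 5 uM for JH1 or 500 nM for JH2, 60 s association, and 300 s or 1200 s dissociation respectively. Protein was freshly captured per compound in the presence of 10 uM stabilizer compound, with running buffer of pH 7.5 HEPES/NaCl/glycerol/DTT plus 2% DMSO.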

[2] = test system: TF1 JAK2 V617F STAT5 reporter; test: Cellular TF1 STAT5 assay (luciferase reporter), JAK2 V617F; type: cell-based; conditions: read-out: Cell PD TF1 V617F STAT5 (IC50)
How it was run: (§1)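 TF1 erythroleukemia cells expressing V617F JAK2 with a STAT3 or STAT5 luciferase reporter were seeded at 10,000 cells/well onto compound (10-point, 1:3 dilutions; 10 mM top stock at 1000×) and incubated 18-20 h at 37 °C, 5% CO2. Luminescence was read after ONE-glo addition, 10 min at room temperature.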

[3] = test system: TF1 JAK2 V617F STAT3 reporter; test: Cellular TF1 STAT3 assay (luciferase reporter), JAK2 V617F; type: cell-based; conditions: read-out: Cell PD-TF1 JAK2 V617F STAT3 (IC50)
How it was run: as §1

[4] = Homo sapiens, TF-1, TF1 cells, JAK2 V617F

Structure (SMILES) | Kd ([1]; SPR, JAK2 JH2 domain) | IC50 ([2]; TF1 JAK2 V617F) | IC50 ([3]; TF1 JAK2 V617F) | Kd [1] | IC50 [2, 4] | IC50 [3, 4]
CNC(=O)c1nnc(NC(=O)C2CC2)cc1Nc1ccc(C)c(-c2cnn(C3CN(Cc4ccccn4)C3)c2)c1OC [Compound 67] | 0.01 to 10 nM | 500 to 5000 nM | 500 to 5000 nM | – | – | –
CCS(=O)(=O)c1ccnc(CN(C)C(=O)c2ccc(-c3cccc(Nc4cc(NC(=O)C5CC5)nnc4C(=O)NC)c3OC)cn2)c1 [Compound 394] | – | – | – | 0.01 to 10 nM | 10 to 50 nM | 10 to 50 nM
CNC(=O)c1nnc(NC(=O)C2CC2)cc1Nc1cccc(-c2ccc(C(=O)N(C)Cc3ccccc3C(C)C)nc2)c1OC [Compound 81] | 10 to 50 nM | 500 to 5000 nM | 500 to 5000 nM | – | – | –
CNC(=O)c1nnc(NC(=O)C2CC2)cc1Nc1cccc(-c2cnn([C@H]3C[C@H]([C@@H](OC)c4ccccn4)C3)c2)c1OC (single isomer, unassigned) [Compound 346] | – | – | – | 0.01 to 10 nM | 500 to 5000 nM | 500 to 5000 nM
CNC(=O)c1nnc(NC(=O)C2CC2)cc1Nc1cccc(-c2ccc(C(=O)N(C)Cc3cc(C#N)ccn3)c(C#N)c2)c1OC [Compound 118] | 0.01 to 10 nM | 500 to 5000 nM | 500 to 5000 nM | – | – | –
COc1c(Nc2cc(NC(=O)C3CC3)nnc2-c2ncc[nH]2)cccc1-c1ccc(C(=O)N(C)Cc2cc(C#N)ccn2)nc1 [Compound 366] | – | – | – | 0.01 to 10 nM | 50 to 500 nM | 50 to 500 nM
CNC(=O)c1nnc(NC(=O)C2CC2)cc1Nc1cccc(-c2ccc(C(=O)N(C)C[C@H]3Cc4ccccc4CO3)nc2)c1OC (single isomer, unassigned) [Compound 139] | 10 to 50 nM | 5000 to 100000 nM | 500 to 5000 nM | – | – | –
CC#Cc1cccc(CN2CC(n3cc(-c4cccc(Nc5cc(NC(=O)C6CC6)nnc5C(=O)NC)c4OC)cn3)C2)n1 [Compound 281] | – | – | – | 0.01 to 10 nM | 50 to 500 nM | 50 to 500 nM
CNC(=O)c1nnc(NC(=O)C2CC2)cc1Nc1cccc(-c2ccc(C3CN(Cc4cc(C#N)ccn4)C3)c(OC)c2)c1OC [Compound 360] | – | – | – | 50 to 500 nM | 500 to 5000 nM | 5000 to 100000 nM
CNC(=O)c1nnc(NC(=O)C2CC2)cc1Nc1cccc(-c2ccc(C(=O)N(C)Cc3cn(C)nc3C(F)(F)F)nn2)c1OC [Compound 75] | 0.01 to 10 nM | 500 to 5000 nM | 500 to 5000 nM | – | – | –
CNC(=O)c1nnc(NC(=O)C2CC2)cc1Nc1cccc(-c2cnn(C3CN(Cc4cccc(C5CCC5)n4)C3)c2)c1OC [Compound 258] | – | – | – | 0.01 to 10 nM | 50 to 500 nM | 50 to 500 nM
CNC(=O)c1nnc(NC(=O)C2CC2)cc1Nc1cccc(-c2ccc(C(=O)N(C)[C@@H](C)c3cnn(C)c3)nc2)c1OC (single isomer, unassigned) [Compound 116] | 0.01 to 10 nM | 500 to 5000 nM | 50 to 500 nM | – | – | –
CNC(=O)c1nnc(NC(=O)C2CC2)cc1Nc1cccc(-c2cnn(C3CN(Cc4cccc(C5(C#N)CCC5)n4)C3)c2)c1OC [Compound 290] | – | – | – | 0.01 to 10 nM | 50 to 500 nM | 50 to 500 nM
CNC(=O)c1nnc(NC(=O)C2CC2)cc1Nc1cccc(-c2cnn(C3CN([C@H](C)c4cccc(C#N)n4)C3)c2)c1OC (single isomer, unassigned) [Compound 283] | – | – | – | 0.01 to 10 nM | 500 to 5000 nM | 500 to 5000 nM
CNC(=O)c1nnc(NC(=O)C2CC2)cc1Nc1cccc(-c2cn(C3CN(C(C)C)C3)nc2C(C)(C)O)c1OC [Compound 338] | – | – | – | 50 to 500 nM | 5000 to 100000 nM | 500 to 5000 nM
CNC(=O)c1nnc(NC(=O)C2CC2)cc1Nc1cccc(-c2ccc(C(=O)N(C)Cc3cn(C)nc3C(C)C)nc2)c1OC [Compound 198] | – | – | – | 0.01 to 10 nM | 50 to 500 nM | 50 to 500 nM
[2H]C([2H])([2H])NC(=O)c1nnc(NC(=O)C2CC2)cc1Nc1cccc(-c2cnc(C(=O)N(C)Cc3ccn(C)n3)nc2)c1OC [Compound 62] | 0.01 to 10 nM | 500 to 5000 nM | 500 to 5000 nM | – | – | –
CNC(=O)c1nnc(NC(=O)C2CC2)cc1Nc1cccc(-c2cnc(C(=O)N(CCF)Cc3cccn(C)c3=O)c(F)c2)c1OC [Compound 22] | 0.01 to 10 nM | 500 to 5000 nM | 500 to 5000 nM | – | – | –
